Data: US20220380342A1, “BIPHENYL DERIVATIVES FOR BLOCKING PD-1/PD-L1 INTERACTION, PREPARATION METHOD THEREFOR AND USE THEREOF” (Abbisko Therapeutics Co., Ltd., priority 2019, published 2022)
pEC50, pIC50: −log10 of the molar value.

Legend:
[1] = molecular target: T1, interaction between PD-1 and PD-L1 (Homo sapiens, UniProt Q9NZQ7); test: PD1-PDL1 HTRF binding activity test; conditions: Cisbio PD-1/PD-L1 binding assay kit; percent inhibition vs DMSO
T1 construct: purchased Cisbio 64ICP01PEG or 64ICP01PEH
Method: The effect of compounds of the examples of the present invention on the interaction between PD-1 and PD-L1 was determined by the PD-1/PD-L1 binding assay kit from Cisbio (#64ICP01PEG or 64ICP01PEH). The detailed experimental process was as follows:
1) Pre-diluted compound solution, 4 μL of Tag1-PD-L1 and 4 μL of Tag2-PD1 were added to each well of a 384-well plate;
2) After the mixture was incubated at room temperature for 15 min, 5 μL of anti-Tag1-Eu3+ antibody and 5 μL of anti-Tag2-XL665 antibody were then added;
3) After incubated for 2 hrs at room temperature or overnight at 4° C., plates were read on Envision of Perkin Elmer; and readings at 665 nm and 620 nm were recorded, and the ratio of the two readings was taken as a reading for each well;
4) The reading of each well after compound treatment was compared with the reading of DMSO treated wells to obtain the percent inhibition of the compound; and
5) IC50 values of compounds of the examples of the present invention were determined by non-linear regression analysis of percent inhibition at different compound concentrations.

[2] = molecular target: T2, interaction between PD-1 and PD-L1 expressed on cell surfaces (Jurkat/NF-κB-luc/PD1 cells cocultured with Raji-PD-L1 cells) (Homo sapiens, UniProt Q9NZQ7); test: Jurkat reporter gene cellular assay; type: cell-based; conditions: OKT3 1 μg/mL stimulation, 6 hrs, activation fold vs DMSO
T2 construct: expressed in transfected cells; host or cells: Raji cells (PD-L1); Jurkat cells (PD-1, NF-κB-luc reporter)
Method: The effect of compounds of the examples of the present invention on the interaction between PD-1 and PD-L1 expressed on cell surfaces, and the related influence on T cell functions, were determined by a Jurkat reporter gene cellular assay.
Briefly, the reporter gene plasmid of NF-κB-luc and the plasmid of human PD-1 were transfected into Jurkat cells to establish a stably transfected cell line capable of stably expressing both PD-1 and NF-κB-Luc reporter genes; the expression level of PD-1 on the cell surface was confirmed by flow cytometry; and the expression of the reporter gene was confirmed via the response of the reporter gene stimulated by OKT-3 and Raji cells.
In addition, the plasmid of human PD-L1 was transfected into Raji cells to obtain a cell line capable of stably expressing PD-L1. Jurkat/NF-κB-luc/PD1 cells and Raji-PD-L1 cells were then cocultured and stimulated with OKT-3. On this basis, the compounds were added, and the enhancement of the signal pathway of T cell activation by the inhibitory effect of the compounds on the interaction between PD-1 and PD-L1 was evaluated by readings of reporter gene responses. The specific experimental process was as follows:
1) 30 μL of compound or antibody solution was added to each well of a white 96-well plate (Corning, 3610) at different diluted concentrations, and 10 μL of OKT3 (Biolegend, 317326) was then added (the final concentration of OKT3: 1 μg/mL);
2) 20 μL of Raji-PD-L1 cell suspension was added to each well with 5*10^4 cells for each well, and was incubated in an incubator for 20 min;
3) 20 μL of Jurkat/NF-Kb-luc/PD-1 cell suspension was added to each well with 5*10^4 cells for each well, and was well mixed, and 6 hrs later, Bright-glo (Promega, E2620) was applied and plates were read on Envision;
4) The reading of each well treated with the compound was compared with the reading of each well treated with DMSO to obtain the activation fold of the compound; and
5) EC50 values of compounds of the examples of the present invention were determined by non-linear regression analysis of activation folds at different compound concentrations.

T1 sequence (Q9NZQ7 19-238 limits assumed): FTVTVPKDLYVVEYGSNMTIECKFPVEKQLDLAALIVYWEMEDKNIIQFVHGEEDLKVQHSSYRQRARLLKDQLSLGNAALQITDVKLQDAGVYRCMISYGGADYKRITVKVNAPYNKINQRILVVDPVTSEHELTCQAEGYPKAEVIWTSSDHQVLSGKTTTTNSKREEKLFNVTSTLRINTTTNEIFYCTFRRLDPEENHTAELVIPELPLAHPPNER
T2 sequence (Q9NZQ7 19-290): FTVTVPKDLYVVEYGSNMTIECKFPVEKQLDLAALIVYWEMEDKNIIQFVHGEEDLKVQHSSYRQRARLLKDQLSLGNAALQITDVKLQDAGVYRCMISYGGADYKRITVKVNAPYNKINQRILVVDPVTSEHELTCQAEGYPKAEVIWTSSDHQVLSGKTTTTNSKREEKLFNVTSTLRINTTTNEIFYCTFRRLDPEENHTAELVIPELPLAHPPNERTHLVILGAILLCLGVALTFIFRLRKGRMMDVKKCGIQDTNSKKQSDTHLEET

`Cc1c(NC(=O)c2cc(C3CC3)c(CNCCO)cn2)cccc1-c1cccc(NC(=O)c2cc(C3CC3)c(CN[C@@H](CO)C(=O)O)cn2)c1C` [Example 37, ((4-cyclopropyl-6-((3′-(4-cyclopropyl-5-(((2-hydroxyethyl)amino)methyl)picolinamido)-2,2′-dimethyl-[1,1′-biphenyl]-3-yl)carbamoyl)pyridin-3-yl)methyl)-L-serine] showed a pIC50 [1] of 9.02 and a pEC50 [2] of 7.60.

Work on `Cc1c(NC(=O)c2cc(C3CC3)c(CN[C@@H]3CCC[C@H]3O)cn2)cccc1-c1cccc(NC(=O)c2cc(C3CC3)c(CN3CCCC[C@H]3C(=O)O)cn2)c1C` [Example 6, (S)-1-((4-cyclopropyl-6-((3′-(4-cyclopropyl-5-((((1R,2R)-2-hydroxycyclopentyl)amino)methyl)picolinamido)-2, 2′-dimethyl-[1,1′-biphenyl]-3-yl)carbamoyl)pyridin-3-yl)methyl)piperidine-2-carboxylic acid] yielded a pIC50 [1] of 8.77 and a pEC50 [2] of 7.31.

Work on `Cc1c(NC(=O)c2cc(C3CC3)c(CN[C@H](CO)C(=O)O)cn2)cccc1-c1cccc(NC(=O)c2cc(C3CC3)c(CN3CCC[C@@H]3CO)cn2)c1C` [Example 55] yielded a pIC50 [1] of 8.50 and a pEC50 [2] of 7.00.

In the case of `Cc1c(NC(=O)c2cc(C3CC3)c(CN[C@H](CO)C(=O)O)cn2)cccc1-c1cccc(NC(=O)c2cc(C3CC3)c(CN3CCCC[C@H]3C(=O)O)cn2)c1C` [Example 30, (S)-1-((6-((3′-(5-((((R)-1-carboxy-2-hydroxyethyl)amino)methyl)-4-cyclopropylpicolinamido)-2,2′-dimethyl-[1,1′-biphenyl]-3-yl)carbamoyl)-4-cyclopropylpyridin-3-yl)methyl)piperidine-2-carboxylic acid], the pIC50 [1] was 9.01 and the pEC50 [2] was 7.74.

Work on `CCNCc1cnc(C(=O)Nc2cccc(-c3cccc(NC(=O)c4cc(C5CC5)c(CN5CCCC[C@H]5C(=O)O)cn4)c3C)c2C)cc1C1CC1` [Example 8, (S)-1-((4-cyclopropyl-6-((3′-(4-cyclopropyl-5-((ethylamino)methyl)picolinamido)-2,2′-dimethyl-[1,1′-biphenyl]-3-yl)carbamoyl)pyridin-3-yl)methyl) piperidine-2-carboxylic acid] yielded a pIC50 [1] of 8.90 and a pEC50 [2] of 7.62.

With `Cc1c(NC(=O)c2cc(C3CC3)c(CN3CCC[C@H]3CO)cn2)cccc1-c1cccc(NC(=O)c2cc(C3CC3)c(CN3CCCC[C@H]3C(=O)O)cn2)c1C` [Example 27, (S)-1-((4-cyclopropyl-6-((3′-(4-cyclopropyl-5-(((S)-2-(hydroxymethyl)pyrolidin-1-yl)methyl)picolinamido)-2, 2′-dimethyl-[1,1′-biphenyl]-3-yl)carbamoyl)pyridin-3-yl)methyl)piperidine-2-carboxylic acid] the pIC50 [1] was 8.58 and the pEC50 [2] was 7.56.

For `Cc1c(NC(=O)c2cc(C3CC3)c(CNC3CCCC3)cn2)cccc1-c1cccc(NC(=O)c2cc(C3CC3)c(CN3CCCC[C@H]3C(=O)O)cn2)c1C` [Example 11, (S)-1-((4-cyclopropyl-6-((3′-(4-cyclopropyl-5-((cyclopentylamino)methyl)picolinamido)-2,2′-dimethyl-[1,1′-biphenyl]-3-yl)carbamoyl)pyridin-3-yl)methyl) piperidine-2-carboxylic acid], the pIC50 [1] was 8.50 and the pEC50 [2] was 7.84.

With `Cc1c(NC(=O)c2cc(C3CC3)c(CN3CCCC3)cn2)cccc1-c1cccc(NC(=O)c2cc(C3CC3)c(CN3CCCC[C@H]3C(=O)O)cn2)c1C` [Example 12] the pIC50 [1] was 8.99 and the pEC50 [2] was 7.97.

Molecule `CCOC(=O)[C@@H](CO)NCc1cnc(C(=O)Nc2cccc(-c3cccc(NC(=O)c4cc(C5CC5)c(CN5CCCC[C@H]5C(=O)O)cn4)c3C)c2C)cc1C1CC1` [Example 29, (S)-1-((4-cyclopropyl-6-((3′-(4-cyclopropyl-5-((((R)-1-ethoxy-3-hydroxy-1-oxopropan-2-yl)amino)methyl)picolinamido)-2,2′-dimethyl-[1,1′-biphenyl]-3-yl)carbamoyl)pyridin-3-yl)methyl)piperidine-2-carboxylic acid] has a pIC50 [1] of 8.79 and a pEC50 [2] of 6.94.

`Cc1c(NC(=O)c2cc(C3CC3)c(CNC3CCOCC3)cn2)cccc1-c1cccc(NC(=O)c2cc(C3CC3)c(CN[C@H](CO)C(=O)O)cn2)c1C` [Example 51, ((4-cyclopropyl-6-((3′-(4-cyclopropyl-5-(((tetrahydro-2H-pyran-4-yl)amino)methyl)picolinamido)-2,2′-dimethyl-[1,1′-biphenyl]-3-yl)carbamoyl)pyridin-3-yl)methyl)-D-serine] was tested, and the pIC50 [1] was 8.69 and the pEC50 [2] was 7.06.

`Cc1c(NC(=O)c2cc(C3CC3)c(CN3CC[C@@H](O)C3)cn2)cccc1-c1cccc(NC(=O)c2cc(C3CC3)c(CN3CCCC[C@H]3C(=O)O)cn2)c1C` [Example 13, (S)-1-((4-cyclopropyl-6-((3′-(4-cyclopropyl-5-(((R)-3-hydroxypyrrolidin-1-yl)methyl)picolinamido)-2,2′-dimethyl-[1,1′-biphenyl]-3-yl)carbamoyl)pyridin-3-yl)methyl)piperidine-2-carboxylic acid] was tested, and the pIC50 [1] was 8.83 and the pEC50 [2] was 7.93.

`Cc1c(NC(=O)c2cc(C3CC3)c(CNCCO)cn2)cccc1-c1cccc(NC(=O)c2cc(C3CC3)c(CN3CCCC[C@H]3C(=O)O)cn2)c1C` [Example 1, (S)-1-((4-cyclopropyl-6-((3′-(4-cyclopropyl-5-(((2-hydroxyethyl)amino)methyl)picolinamido)-2,2′-dimethyl-[1,1′-biphenyl]-3-yl)carbamoyl)pyridin-3-yl)methyl)piperidine-2-carboxylic acid] was tested, and the pIC50 [1] was 8.97 and the pEC50 [2] was 8.17.

In the case of `CCOC(=O)[C@H](CO)NCc1cnc(C(=O)Nc2cccc(-c3cccc(NC(=O)c4cc(C5CC5)c(CN5CCCC[C@H]5C(=O)O)cn4)c3C)c2C)cc1C1CC1` [Example 31, (S)-1-((4-cyclopropyl-6-((3′-(4-cyclopropyl-5-((((S)-1-ethoxy-3-hydroxy-1-oxopropan-2-yl)amino)methyl)picolinamido)-2,2′-dimethyl-[1,1′-biphenyl]-3-yl)carbamoyl)pyridin-3-yl)methyl) piperidine-2-carboxylic acid], the pIC50 [1] was 8.59 and the pEC50 [2] was 7.37.

For `Cc1c(NC(=O)c2cc(C3CC3)c(CNCCO)cn2)cccc1-c1cccc(NC(=O)c2cc(C3CC3)c(CN[C@H](CO)C(=O)O)cn2)c1C` [Example 35, ((4-cyclopropyl-6-((3′-(4-cyclopropyl-5-(((2-hydroxyethyl)amino)methyl)picolinamido)-2,2′-dimethyl-[1,1′-biphenyl]-3-yl)carbamoyl)pyridin-3-yl)methyl)-D-serine], the pIC50 [1] was 8.71 and the pEC50 [2] was 7.54.

With `Cc1c(NC(=O)c2cc(C3CC3)c(CNC(C)CO)cn2)cccc1-c1cccc(NC(=O)c2cc(C3CC3)c(CN3CCCC[C@H]3C(=O)O)cn2)c1C` (stereo in doubt) [Example 3, (S)-1-((4-cyclopropyl-6-((3′-(4-cyclopropyl-5-((((R)-1-hydroxypropan-2-yl)amino)methyl)picolinamido)-2,2′-dimethyl-[1,1′-biphenyl]-3-yl)carbamoyl)pyridin-3-yl)methyl)piperidine-2-carboxylic acid] the pIC50 [1] was 8.97 and the pEC50 [2] was 7.83.

In the case of `CCOC(=O)[C@@H](CO)NCc1cnc(C(=O)Nc2cccc(-c3cccc(NC(=O)c4cc(C5CC5)c(CN5CC(C)(O)C5)cn4)c3C)c2C)cc1C1CC1` [Example 36-1, ethyl ((4-cyclopropyl-6-((3′-(4-cyclopropyl-5-((3-hydroxy-3-methylazetidin-1-yl)methyl)picolinamido)-2,2′-dimethyl-[1,1′-biphenyl]-3-yl)carbamoyl)pyridin-3-yl)methyl)-D-serinate], the pIC50 [1] was 7.19.
